The term melting point denotes the temperature of the solid-liquid transition. `CCNC(=O)CC1CN=C(c2cc3cc(Oc4ccc(S(C)(=O)=O)nc4)cc(CC)c3[nH]2)S1` (centres unmarked) [Example 63, N-Ethyl-2-[2-(7-ethyl-5-{[6-(methylsulfonyl)pyridin-3-yl]oxy}-1H-indol-2-yl)-4,5-dihydro-1,3-thiazol-5-yl]acetamide] returned a melting point of 227 to 229 °C. To `CS(=O)(=O)Cc1ccc(Oc2cc(OC3CCOCC3)c3[nH]c(C4=NCC(CC(N)=O)S4)cc3c2)cn1` (centres unmarked) [Example 26, 2-{2-[5-({6-[(Methylsulfonyl)methyl]pyridin-3-yl}oxy)-7-(tetrahydro-2H-pyran-4-yloxy)-1H-indol-2-yl]-4,5-dihydro-1,3-thiazol-5-yl}acetamide] belongs 164 to 167 °C; to `CS(=O)(=O)c1ccc(Oc2cc(OC3CCOCC3)c3[nH]c(C4=NCC(CC(N)=O)S4)cc3c2)cn1` (centres unmarked) [Example 31, 2-{2-[5-{[6-(Methylsulfonyl)pyridin-3-yl]oxy}-7-(tetrahydro-2H-pyran-4-yloxy)-1H-indol-2-yl]-4,5-dihydro-1,3-thiazol-5-yl}acetamide], 136 to 138 °C; to `Cc1cc(Oc2ccc(S(C)(=O)=O)nc2)cc2cc(C3=NCC(CC(=O)O)S3)[nH]c12` (centres unmarked) [Example 71, [2-(7-Methyl-5-{[6-(methylsulfonyl)pyridin-3-yl]oxy}-1H-indol-2-yl)-4,5-dihydro-1,3-thiazol-5-yl]acetic acid], 248 to 249 °C. To `CNC(=O)CC1CN=C(c2cc3cc(Oc4ccc(S(C)(=O)=O)nc4)cc(OC4CCOCC4)c3[nH]2)S1` (centres unmarked) [Example 34, N-methyl-2-{2-[5-{[6-(Methylsulfonyl)pyridin-3-yl]oxy}-7-(tetrahydro-2H-pyran-4-yloxy)-1H-indol-2-yl]-4,5-dihydro-1,3-thiazol-5-yl}acetamide] belongs 143 to 144 °C. `CS(=O)(=O)c1ccc(Oc2cc(OC3CCOCC3)c3[nH]c(C4=NCC(CC(N)=O)S4)cc3c2)nc1` (centres unmarked) [Example 16, 2-{2-[5-{[5-(Methylsulfonyl)pyridin-2-yl]oxy}-7-(tetrahydro-2H-pyran-4-yloxy)-1H-indol-2-yl]-4,5-dihydro-1,3-thiazol-5-yl}acetamide] came in with a melting point of 188 to 190 °C. To `CC(C)(O)CNC(=O)CC1CN=C(c2cc3cc(Oc4ccc(S(C)(=O)=O)nc4)cc(OC4CCOCC4)c3[nH]2)S1` (centres unmarked) [Example 39, N-(2-Hydroxy-2-methylpropyl)-2-{2-[5-{[6-(methylsulfonyl)pyridin-3-yl]oxy}-7-(tetrahydro-2H-pyran-4-yloxy)-1H-indol-2-yl]-4,5-dihydro-1,3-thiazol-5-yl}acetamide] belongs 195 to 196 °C. The result for `CS(=O)(=O)c1ccc(Oc2cc(OC3CCOCC3)c3[nH]c(C4=NCC(CC(N)=O)S4)cc3c2)cc1` (centres unmarked) [Example 5, 2-(2-{5-[4-(Methylsulfonyl)phenoxy]-7-(tetrahydro-2H-pyran-4-yloxy)-1H-indol-2-yl}-4,5-dihydro-1,3-thiazol-5-yl)acetamide] reads 176 to 177 °C; that for `Cc1cc(Oc2ccc(S(C)(=O)=O)nc2)cc2cc(C3=NCC(CC(=O)NC[C@@H](C)O)S3)[nH]c12` (stereo partly drawn) [Example 77, N-[(2R)-2-Hydroxypropyl]-2-[2-(7-methyl-5-{[6-(methylsulfonyl)pyridin-3-yl]oxy}-1H-indol-2-yl)-4,5-dihydro-1,3-thiazol-5-yl]acetamide], 168 to 169 °C; that for `CN(C)C(=O)CC1CN=C(c2cc3cc(Oc4ccc(S(C)(=O)=O)nc4)ccc3[nH]2)S1` (centres unmarked) [Example 64, N,N-Dimethyl-2-[2-(5-{[6-(methylsulfonyl)pyridin-3-yl]oxy}-1H-indol-2-yl)-4,5-dihydro-1,3-thiazol-5-yl]acetamide], 190 to 191 °C. The result for `CS(=O)(=O)c1ccc(Oc2ccc3[nH]c(C4=NCC(CC(=O)N5CCOCC5)S4)cc3c2)cn1` (centres unmarked) [Example 68, 5-{[6-(Methylsulfonyl)pyridin-3-yl]oxy}-2-[5-(2-morpholin-4-yl-2-oxoethyl)-4,5-dihydro-1,3-thiazol-2-yl]-1H-indole] reads 168 to 169 °C; that for `CS(=O)(=O)c1ccc(Oc2cc(OC3CCOCC3)c3[nH]c(C4=NCC(CCO)S4)cc3c2)nc1` (centres unmarked) [Example 13, 2-{2-[5-{[5-(Methylsulfonyl)pyridin-2-yl]oxy}-7-(tetrahydro-2H-pyran-4-yloxy)-1H-indol-2-yl]-4,5-dihydro-1,3-thiazol-5-yl}ethanol], 165 to 166 °C.

For the compound `Cc1cc(Oc2ccc(S(C)(=O)=O)nc2)cc2cc(C3=NCC(CC(=O)NC[C@H](C)O)S3)[nH]c12` (stereo partly drawn) [Example 76, N-[(2S)-2-Hydroxypropyl]-2-[2-(7-methyl-5-{[6-(methylsulfonyl)pyridin-3-yl]oxy}-1H-indol-2-yl)-4,5-dihydro-1,3-thiazol-5-yl]acetamide], the melting point was in the range of 170 to 171 °C.

In the case of `CNC(=O)CC1CN=C(c2cc3cc(Oc4ccc(S(C)(=O)=O)nc4)ccc3[nH]2)S1` (centres unmarked) [Example 79], the melting point lay in the range of 172 to 173 °C. To `CNC(=O)CC1CN=C(c2cc3cc(Oc4ccc(CS(C)(=O)=O)nc4)cc(OC4CCOCC4)c3[nH]2)S1` (centres unmarked) [Example 27, N-Methyl-2-{2-[5-({6-[(methylsulfonyl)methyl]pyridin-3-yl}oxy)-7-(tetrahydro-2H-pyran-4-yloxy)-1H-indol-2-yl]-4,5-dihydro-1,3-thiazol-5-yl}acetamide] belongs 157 to 158 °C; to `CCc1cc(Oc2ccc(S(C)(=O)=O)nc2)cc2cc(C3=NCC(CC(=O)NC)S3)[nH]c12` (centres unmarked) [Example 62, 2-[2-(7-Ethyl-5-{[6-(methylsulfonyl)pyridin-3-yl]oxy}-1H-indol-2-yl)-4,5-dihydro-1,3-thiazol-5-yl]-N-methylacetamide], 189 to 190 °C.

In the case of `CS(=O)(=O)c1ccc(Oc2cc(OC3CCOCC3)c3[nH]c(C4=NCC(CC(=O)NCCO)S4)cc3c2)cn1` (centres unmarked) [Example 44, N-(2-Hydroxyethyl)-2-{2-[5-{[6-(methylsulfonyl)pyridin-3-yl]oxy}-7-(tetrahydro-2H-pyran-4-yloxy)-1H-indol-2-yl]-4,5-dihydro-1,3-thiazol-5-yl}acetamide], the melting point fell in the range of 157 to 158 °C. On to `Cc1cc(Oc2ccc(S(C)(=O)=O)nc2)cc2cc(C3=NCC(CC(=O)NCC(C)(C)O)S3)[nH]c12` (centres unmarked) [Example 75, N-(2-Hydroxy-2-methylpropyl)-2-[2-(7-methyl-5-{[6-(methylsulfonyl)pyridin-3-yl]oxy}-1H-indol-2-yl)-4,5-dihydro-1,3-thiazol-5-yl]acetamide], for which the melting point is 184 to 186 °C. The result for `CC1(CNC(=O)CC2CN=C(c3cc4cc(Oc5ccc(S(C)(=O)=O)nc5)cc(OC5CCOCC5)c4[nH]3)S2)COC1` (centres unmarked) [Example 40, N-[(3-Methyloxetan-3-yl)methyl]-2-{2-[5-{[6-(methylsulfonyl)pyridin-3-yl]oxy}-7-(tetrahydro-2H-pyran-4-yloxy)-1H-indol-2-yl]-4,5-dihydro-1,3-thiazol-5-yl}acetamide] reads 189 to 190 °C; that for `CCc1cc(Oc2ccc(S(C)(=O)=O)nc2)cc2cc(C3=NCC(CC(=O)O)S3)[nH]c12` (centres unmarked) [Example 60, [2-(7-Ethyl-5-{[6-(methylsulfonyl)pyridin-3-yl]oxy}-1H-indol-2-yl)-4,5-dihydro-1,3-thiazol-5-yl]acetic acid], 230 to 232 °C.

With `COCCNC(=O)CC1CN=C(c2cc3cc(Oc4ccc(S(C)(=O)=O)nc4)ccc3[nH]2)S1` (centres unmarked) [Example 66, N-(2-Methoxyethyl)-2-[2-(5-{[6-(methylsulfonyl)pyridin-3-yl]oxy}-1H-indol-2-yl)-4,5-dihydro-1,3-thiazol-5-yl]acetamide], the melting point fell in the range of 174 to 175 °C. The result for `CS(=O)(=O)c1ccc(Oc2ccc3[nH]c(C4=NCC(CC(=O)O)S4)cc3c2)cn1` (centres unmarked) [Example 52, [2-(5-{[6-(Methylsulfonyl)pyridin-3-yl]oxy}-1H-indol-2-yl)-4,5-dihydro-1,3-thiazol-5-yl]acetic acid] reads 205 to 208 °C; that for `CS(=O)(=O)c1ccc(Oc2cc(OC3CCOCC3)c3[nH]c(C4=NCC(CC(=O)N5CC(O)C5)S4)cc3c2)nc1` (centres unmarked) [Example 18, 1-({2-[5-{[5-(Methylsulfonyl)pyridin-2-yl]oxy}-7-(tetrahydro-2H-pyran-4-yloxy)-1H-indol-2-yl]-4,5-dihydro-1,3-thiazol-5-yl}acetyl)azetidin-3-ol], 180 to 181 °C.

(Values after patent US8557805B2, “Fused ring compound and use thereof” (Takeda Pharmaceutical Company Limited, priority 2008, dated 2013).)
